Reference: patent US20080039471A1, “Composition and method to inhibit tissue plasminogen activator (tPA) - potentiated neurotoxicity” (priority 2006, published 2008)

Legend:
[1] = tested on: embryonic (E18) rat cortical and striatal neurons; assay: Morphological changes, H/H and tPA insult (Example 2); type: cell-based
Method: (§1) A mixed culture of embryonic (E18) rat cortical and striatal neurons was cultured for 13 days in neurobasal medium (Invitrogen), then insulted by hypoglycemia/hypoxia (H/H) conditions for 6 hours, or a combination of H/H and 20 μg/ml tPA. The H/H conditions were 1.2 mM glucose (normally 25 mM in culture medium) and the absence of oxygen for 6 hours. (Following H/H conditions, the cultures were returned to the typical conditions of 25 mM glucose medium and 95% ambient air plus 5% CO2.)
(§2) In a further experiment, cells that were under H/H conditions and also treated with the tPA were divided into groups, which were either co-treated or post-treated (i.e., during or after the 6 hour insult period) with control vehicle or each of PAN-811 at concentrations of 1.25, 2.5, 5 and 10 μM.
The experimental results were evaluated by morphological changes, and LDH and MTS analyses.

[2] = tested on: embryonic (E18) rat cortical and striatal neurons; assay: LDH assay, glutamate / tPA insult (Example 1); type: cell-based
Method: For this example PAN-811 was dissolved in PEG:EtOH (7:3) to a concentration of 25 mM, and further diluted in neurobasal medium to a final concentration of 2 μM. The control vehicle is 1:12,500 PEG:EtOH (7:3 in BSS).
(§3) A mixed culture of embryonic (E18) rat cortical and striatal neurons was cultured for 22 days in 50% antioxidative (AO) neurobasal medium (made by replacing 50% of the neurobasal culture medium with a medium comprised of neurobasal plus B27 supplement (minus AO, i.e., without the antioxidants vitamin E, vitamin E acetate, 2.5 mg/L superoxide dismutase, 2.5 mg/L catalase, and 1 mg/L glutathione) (from Invitrogen)), and then divided into test groups in accordance with the following scheme: (1) not insulted (control); (2) insulted with 15 μM glutamate; (3) insulted with 20 μg/ml tPA; or (4) insulted with both 15 μM glutamate and 20 μg/ml tPA, for a period of 24 hours. In a further test category, neurons that were to be insulted for 24 hours with the combination of 15 μM glutamate and 20 μg/ml tPA, were divided into groups in which (1) cells were not pre-treated prior to insult; (2) were pretreated overnight with 1:12,500 vehicle (used for PAN-811), or (3) were pre-treated overnight with PAN-811 (in vehicle).
(§4) The lactate dehydrogenase (LDH) assay (Promega) is based on the reduction of NAD by the action of LDH. The resulting reduced NAD (NADH) is utilized in the stoichiometric conversion of a tetrazolium dye. If cell-free aliquots of medium from cultures given different treatments are assayed, then the amount of LDH activity can be used as an indicator of relative cell death as well as a function of membrane integrity. A 50 μl aliquot of culture medium from a well in tested 96-well plate is transferred into a well in unused plate and supplemented with 25 μl of equally-mixed Substrate, Enzyme and Dye Solutions (Sigma). The preparation is incubated at room temperature for 20-30 minutes, and then measured spectrophotometrically at wavelength of 490 nm.

[3] = single 2-h infusion every 4 weeks, cited from earlier work
[4] = systematic administration (Jiang et al.); cited from earlier work
[5] = tested on: embryonic (E18) rat cortical and striatal neurons; assay: LDH assay, hypoglycemia/hypoxia (H/H) and tPA insult (Example 2); type: cell-based
Method: as §4
In this example, PAN-811 was dissolved in PEG:EtOH (7:3) to a concentration of 25 mM, and further diluted in neurobasal medium to final concentrations of 1.25, 2.5, 5 and 10 μM. The control vehicle is 1:10,000 PEG:EtOH (7:3 in BSS).
as §1, §2

[6] = tested on: embryonic (E18) rat cortical and striatal neurons; assay: MTS (mitochondrial function) assay, glutamate / tPA insult (Example 1); type: cell-based; details: 15 μM glutamate, 20 μg/ml tPA, insult 24 hours
Method: as §3, with “In a further test category, neurons that were to be insulted for 24 hours with the combination of 15 μM glutamate and 20 μg/ml tPA, were divided into groups in which (1) cells were not pre-treated prior to insult; (2) were pretreated overnight with 1:12,500 vehicle (used for PAN-811), or (3) were pre-treated overnight with PAN-811 (in vehicle).” left out
The 3-(4,5-dimethylthiazol-2-yl)-5-(3-carboxymethoxyphenyl)-2-(4-sulfophenyl)-2H-tetrazolium (MTS) assay (Promega) is routinely used to evaluate mitochondrial function, and reduced readings are correlated with neuronal cell death. The MTS tetrazolium compound is reduced in metabolically active mitochondria into a colored formazan product that is soluble in tissue culture medium, and can be detected via its absorbance 490 nm. […] The absorbance at 490 nm was recorded using a Bio-Rad 96 well plate reader.

[7] = tested on: embryonic (E18) rat cortical and striatal neurons; assay: Morphological changes, glutamate / tPA insult (Example 1); type: cell-based; details: 15 μM glutamate, 20 μg/ml tPA, insult 24 hours
Method: as §3
The experimental results were evaluated by morphological changes, lactate dehydrogenase (LDH) and MTS (mitochondrial function) analyses.

[8] = tested on: tPA-potentiated, NMDA-mediated, excitotoxic neuronal death; details: cited from earlier work
[9] = tested on: embryonic (E18) rat cortical and striatal neurons; assay: MTS assay, H/H and tPA insult (Example 2); type: cell-based; details: H/H 6 hours combined with 20 μg/ml tPA
Method: The 3-(4,5-dimethylthiazol-2-yl)-5-(3-carboxymethoxyphenyl)-2-(4-sulfophenyl)-2H-tetrazolium (MTS) assay (Promega) is routinely used to evaluate mitochondrial function, and reduced readings are correlated with neuronal cell death. The MTS tetrazolium compound is reduced in metabolically active mitochondria into a colored formazan product that is soluble in tissue culture medium, and can be detected via its absorbance 490 nm. 10 μl of MTS reagent (Promega) are added to each well of the 96 well assay plates containing the samples in 50 μl of culture medium. The plate is then incubated in a humidified, 5% CO2 atmosphere at 37° C. for 1-2 hours until the color is fully developed. The absorbance at 490 nm was recorded using a Bio-Rad 96 well plate reader.
as §1

Molecule: NC(=S)N/N=C/c1ncccc1N [PAN-811, 3-aminopyridine-2-carboxaldehyde thiosemicarbazone]
- neuronal morphology ([1]; co- or post-treatment, 1.25-10 μM PAN-811, H/H and tPA conditions): preserved neuronal morphology
- reduction of LDH reading as compared to no pre-treatment or control vehicle ([2]; pre-treated overnight with 2 μM PAN-811, insult 15 μM glutamate and 20 μg/ml tPA, 24 hours): about 11%
- well tolerated dose ([3]; 46 courses of therapy): up to 105 mg/m^2
- dose limiting toxicity ([3]; doses up to 105 mg/m^2): not identified
- passage of the BBB [4]: will pass the BBB
- neuroprotection (LDH readings) ([5]; 1.25 μM PAN-811, H/H and tPA): effective in significantly reducing LDH readings
- protection (LDH) ([5]; 5 μM PAN-811 post-insult (H/H and tPA)): 51%
- decrease of LDH reading ([5]; co-treated with 5 μM PAN-811 during H/H and tPA insult): 23%
- dose dependence of protection ([5]; co-treatment or post-treatment, 1.25, 2.5, 5 and 10 μM, H/H and tPA): showed a dose response correlation

Molecule: N[C@@H](CCC(=O)O)C(=O)O [glutamate, reference compound]
- increase in LDH over the control ([2]; 15 μM glutamate, 20 μg/ml tPA, insult 24 hours): 4.4 fold
- reduction in the MTS reading over the control [6]: 13%
- morphology of neurons [7]: strong neuronal cell death

Molecule: Cl.Cl.N=C(N)c1ccc(C=C2CCCCC(=Cc3ccc(C(=N)N)cc3)C2=O)cc1 [tPA-Stop™, 2,7-bis-(4-amidino-benzylidene)-cycloheptan-1-one dihydrochloride]
- effect on alpha-amino-2,3-dihydro-5-methyl-3-oxo-4-isoxazole propanoic acid or kainate-mediated necrosis [8]: fails to modulate
- effect on tPA-potentiated, NMDA-mediated, excitotoxic neuronal death [8]: effective in reducing

Molecule: tPA: Recombinant tissue-type plasminogen activator, a thrombolytic-acting drug approved for ischemic stroke
- morphology, neuronal cell death ([1]; H/H combined with 20 μg/ml tPA, by 17 hours post-insult): robust neuronal cell death
- toxicity to neurons by LDH assay ([2]; 20 μg/ml tPA alone, 24 hours): not toxic
- decrease of MTS reading [9]: 51%
- reduction in the MTS reading over the control [6]: did not cause any reduction
- enhancement in the LDH reading over control ([5]; H/H 6 hours combined with 20 μg/ml tPA): 3.3 fold
- morphology of neurons [7]: neurons remained healthy
